These results are taken from ChEMBL document CHEMBL1201862, “PubChem BioAssay data set” (2004).

Test systems include DLD-1; DMS-114; DMS-273; KM-20L2; LXFL 529; M19-MEL; RXF 631; HOP-18; XF498.
Common to all, as to assay: NCI anticancer screen, dose series, 48 h

Values joined by “and” are separate entries in the source; they are usually repeats but may differ in a detail not shown here. Equal entries are not always repeated.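 1) Cells in 96-well plates. 2) Compound, 48 h, 5 concentrations. 3) Linear interpolation between surrounding doses. 4) Unreached endpoint = highest concentration. The concentration for 50% growth inhibition is given as GI50.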 Active and inactive are the calls of the source. Cut-off read from the data, not from the text of the source: active = GI50 up to about 1.1 µM and inactive = higher. Bounds are passed on as bounds.

Take `CC(C)(CCl)NC(=O)c1cccc(C(=O)NC(C)(C)CCl)n1`: the GI50 with DLD-1, in the assay on DMS-114, in the assay on DMS-273, with KM-20L2, in the assay with LXFL 529 and in the assay with M19-MEL was > 100 µM (inactive) each time. Moreover, the GI50 with RXF 631 is > 100 µM (inactive).
For `Oc1cc(O)c2c(-c3c(O)c(-c4ccc(O)c(O)c4)[o+]c4cc(O)cc(O)c34)c(O)c(-c3ccc(O)c(O)c3)[o+]c2c1`, the GI50 is 87.7 µM (inactive) in the assay with DLD-1; 32.7 µM (inactive) in the assay on DMS-114; 39.6 µM (inactive) with DMS-273; 8 µM (inactive) with HOP-18; 46 µM (inactive) in the assay on KM-20L2; 55.5 µM (inactive) in the assay with LXFL 529. The GI50 in the assay with M19-MEL was 45.3 µM (inactive); in the assay with RXF 631, 30.9 µM (inactive); in the assay on XF498, 33.7 µM (inactive).
Consider `c1ccc([P+](c2ccccc2)(c2ccccc2)C2Sc3ccccc3S2)cc1`, for which the GI50 with DLD-1 was 12.4 µM (inactive); in the assay on DMS-114 it was 12.7 µM (inactive); in the assay with DMS-273 it was 18.1 µM (inactive); in the assay on KM-20L2, 23.4 µM (inactive); with LXFL 529 it was 12.6 µM (inactive); in the assay on M19-MEL, 15.1 µM (inactive). Further, the GI50 in the assay with RXF 631 is 16 µM (inactive); with XF498, 17.3 µM (inactive).
For the compound `CC1CN1c1c(C(=O)/C=C/c2ccc(Cl)cc2)c(-c2ccccc2)nn(C)c1=O` (stereo unspecified), the GI50 was 1.71 µM (inactive) in the assay with DLD-1; 3.65 µM (inactive) in the assay on DMS-114; 2.62 µM (inactive) in the assay on DMS-273; 3.92 µM (inactive) in the assay with HOP-18; 3.26 µM (inactive) in the assay on KM-20L2; 2.13 µM (inactive) with LXFL 529. Besides, the GI50 is 3.14 µM (inactive) with M19-MEL and 2.99 µM (inactive) in the assay with XF498.
In the case of `CCOC(=O)C1(C)CCCCC(=O)N1` (stereo unspecified), the GI50 is > 100 µM (inactive) in the assay on DLD-1; > 100 µM (inactive) in the assay with DMS-114; > 100 µM (inactive) in the assay on DMS-273; 64.3 µM (inactive) in the assay with HOP-18; > 100 µM (inactive) with KM-20L2; > 100 µM (inactive) in the assay on LXFL 529. Moreover, the GI50 in the assay with M19-MEL, in the assay with RXF 631 and in the assay with XF498 was > 100 µM (inactive) throughout.
As to `O=[N+]([O-])c1ccccc1S(=O)(=O)c1ccccc1[N+](=O)[O-]`, the GI50 in the assay with DLD-1 is > 100 µM (inactive); in the assay on DMS-114, > 90.2 µM (inactive); in the assay with DMS-273 it was > 100 µM (inactive); with HOP-18, > 83.2 µM (inactive); in the assay with KM-20L2, > 100 µM (inactive); in the assay on LXFL 529 it was > 100 µM (inactive). Further, the GI50 in the assay with M19-MEL was > 100 µM (inactive); with XF498 it was 30.7 µM (inactive).
Consider `CN(C)CCNC(=O)c1cccc2cc3c(Cl)cccc3nc12`, for which the GI50 in the assay on DLD-1 is 1.17 µM (inactive); with DMS-114 it was 1.35 µM (inactive); in the assay with DMS-273, 0.562 µM (active); with HOP-18, 4.51 µM (inactive); in the assay on KM-20L2, 1.54 µM (inactive); in the assay with LXFL 529, 1.67 µM (inactive). The values for the GI50 in the assay with M19-MEL, in the assay with RXF 631 and in the assay with XF498 were 1.33 µM (inactive), 2.55 µM (inactive) and 0.394 µM (active), respectively.
Consider `CC1=C(C)C(=O)c2c(cc3ccccn23)C1=O`, for which the GI50 in the assay on DLD-1 is > 10 µM (inactive); in the assay on DMS-114, 12.9 µM (inactive); with DMS-273, 16.6 µM (inactive); in the assay on HOP-18, 33.9 µM (inactive); in the assay with LXFL 529 it was 15.3 µM (inactive); with M19-MEL, 1.87 µM (inactive). Further, in the assay on RXF 631, the GI50 was 3.12 µM (inactive).
`CN(c1ccccc1)c1c(Cl)c(=O)oc2c1ccc1occc12`: the GI50 in the assay on DLD-1, in the assay with DMS-114, with DMS-273, in the assay with HOP-18, in the assay with KM-20L2 and in the assay on LXFL 529 was > 100 µM (inactive) throughout. Further, the GI50 in the assay with M19-MEL and in the assay with RXF 631 was > 100 µM (inactive) each time.
As for `Cc1cc(C(O)CCCc2ccccc2)cc(C)c1O` (stereo unspecified), the GI50 in the assay on DMS-114 is 26.2 µM (inactive); in the assay with HOP-18 it was > 100 µM (inactive); in the assay on KM-20L2 it was > 100 µM (inactive); in the assay on LXFL 529 it was 47.5 µM (inactive); in the assay on M19-MEL, 37.7 µM (inactive); in the assay with RXF 631 it was 51.5 µM (inactive).
Turning to `O=C(N/N=C1\C(=O)N(c2nccs2)C(=O)C(=O)C1c1nc2ccccc2s1)c1ccccc1O` (stereo unspecified), the GI50 in the assay on DLD-1 is 71.1 µM (inactive); with DMS-114 it was 28.3 µM (inactive); with DMS-273, 31.8 µM (inactive); in the assay on HOP-18 it was 10.1 µM (inactive); in the assay with KM-20L2, > 100 µM (inactive); in the assay on LXFL 529, 32 µM (inactive). The GI50 is 87.1 µM (inactive) with M19-MEL and 27.1 µM (inactive) in the assay on XF498.
Regarding `NC(=S)N/N=C(\CCC(=O)Nc1ccccc1[N+](=O)[O-])CC(=O)c1ccco1`, the GI50 in the assay on DLD-1, in the assay on DMS-114, in the assay with DMS-273, in the assay with HOP-18, with KM-20L2 and in the assay with LXFL 529 was > 100 µM (inactive) each time. The GI50 with M19-MEL, in the assay on RXF 631 and with XF498 was > 100 µM (inactive) in each case.
In the case of `N#C/C(=C\c1ccc(O)cc1)C(N)=O`, the GI50 in the assay with DLD-1, in the assay on DMS-114, with DMS-273, with KM-20L2, with LXFL 529 and with M19-MEL was > 100 µM (inactive) in each case. In addition, the GI50 in the assay with RXF 631 is > 100 µM (inactive); in the assay with XF498, > 100 µM (inactive) and > 88.5 µM (inactive).
Regarding `COc1ccccc1C(O)(c1ccccc1)C(O)(c1ccccc1)c1ccccc1OC` (stereo unspecified), the GI50 in the assay with DLD-1, with DMS-114, in the assay with DMS-273, with HOP-18, with KM-20L2 and in the assay on LXFL 529 was > 100 µM (inactive) each time. Further, the GI50 in the assay with M19-MEL, with RXF 631 and in the assay with XF498 was > 100 µM (inactive) each time.
Take `Cc1nc2c(nc1C)C(=O)C1=C(C2=O)C2C=CC1CC2`: the GI50 is 7.53 µM (inactive) in the assay with DLD-1; 1.75 µM (inactive) with DMS-114; 14.6 µM (inactive) in the assay on DMS-273; 16.4 µM (inactive) with HOP-18; 23.3 µM (inactive) with KM-20L2; 1.75 µM (inactive) in the assay with LXFL 529. Also, the GI50 in the assay with M19-MEL was 1.75 µM (inactive); with RXF 631, 6.15 µM (inactive); in the assay with XF498, 5.65 µM (inactive).
Turning to `Nc1ccc(C2=N/C(=C\c3cccc(N)c3)C(=O)O2)cc1`, the GI50 in the assay with DLD-1, with DMS-114, in the assay with KM-20L2, with LXFL 529, with M19-MEL and in the assay with RXF 631 was > 100 µM (inactive) throughout. Further, the GI50 with XF498 is > 100 µM (inactive).
Take `Cc1ccc(/N=N/c2c(C)nn(-c3ccccc3)c2C)c(Br)c1`: the GI50 in the assay on DLD-1 is 65.6 µM (inactive); in the assay on DMS-114 it was > 100 µM (inactive); with DMS-273, 51.3 µM (inactive); in the assay with HOP-18 it was > 100 µM (inactive); in the assay on KM-20L2 it was > 100 µM (inactive); with LXFL 529 it was 95.3 µM (inactive). Further, the GI50 with M19-MEL, in the assay on RXF 631 and in the assay with XF498 was > 100 µM (inactive) in each case.
For `COC(=O)C(=O)C(C#N)c1nc2ccccc2s1` (stereo unspecified), the GI50 in the assay with DLD-1 was 56.4 µM (inactive); in the assay with DMS-114 it was > 100 µM (inactive); in the assay on DMS-273 it was > 100 µM (inactive); in the assay on KM-20L2, > 100 µM (inactive); in the assay with LXFL 529, > 100 µM (inactive); in the assay with M19-MEL it was > 100 µM (inactive). The GI50 in the assay on RXF 631 and in the assay on XF498 was > 100 µM (inactive) in each case.
